What was measured:
[1] = tested on: late watergrass; assay: Test Example 1: herbicidal activity, application before weed generation under submerged conditions (Table 16, symbol A); format: in vivo, late watergrass (Echinochloa oryzicola); conditions: amount of applied herbicide 320 g/ha
Outline: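 Emulsion formulation, water-diluted to set dose, was put onto the flooded surface (4 cm depth, alluvial soil) the same day weeds were sown and 2.5-leaf rice transplanted. After 3 weeks at 25-30 °C under glass, each species was rated 0 (≤5% kill) to 5 (≥90% kill).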

[2] = tested on: persian speedwell; assay: Test Example 4: herbicidal effect by soil treatment (Table 19, symbol R); format: in vivo, Persian speedwell (Veronica persica); conditions: amount of applied herbicide 320 g/ha
Outline: (§1)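 Emulsion of test compound, water-diluted to predetermined amount, sprayed on soil after sowing (seed depth ~1.5 cm, sterilized diluvial soil). Greenhouse, 25–30° C. Effect graded at three weeks post-spray.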

[3] = tested on: lambsquarters; assay: Test Example 4: herbicidal effect by soil treatment (Table 19, symbol O); format: in vivo, lambsquarters (Chenopodium album); conditions: amount of applied herbicide 320 g/ha
Outline: as §1

[4] = tested on: Italian ryegrass; assay: Test Example 5: herbicidal effect by foliage application, plastic box (Table 20, symbol K); format: in vivo, Italian ryegrass (Lolium multiflorum); conditions: foliage application, 320 g/ha, three weeks after application
Outline: (§2)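 Post-emergence foliar test in sterilized diluvial soil. Compound applied as water-diluted emulsion at a predetermined rate to 14-day-old plants; evaluation at three weeks.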

[5] = tested on: oval-leafed pondweed; assay: Test Example 2: herbicidal activity, application during weed generation under submerged conditions (Table 17, symbol C); format: in vivo, oval-leafed pondweed (Monochoria vaginalis); conditions: AAH 320 g/ha; application during weed generation, submerged conditions
Outline: (§3)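 Steps: fill Wagner pots with alluvial soil; add water to give 4 cm depth; sow the species mixed; grow under glass at 25–30° C.; at 1–2 leaves apply water-diluted emulsion formulation to the water surface at a fixed herbicide amount; score after 3 weeks.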

[6] = tested on: redroot pigweed; assay: Test Example 5: herbicidal effect by foliage application, plastic box (Table 20, symbol N); format: in vivo, redroot pigweed (Amaranthus retroflexus); conditions: foliage application, 320 g/ha, three weeks after application
Outline: as §2

[7] = tested on: late watergrass; assay: Test Example 2: herbicidal activity, application during weed generation under submerged conditions (Table 17, symbol A); format: in vivo, late watergrass (Echinochloa oryzicola); conditions: AAH 320 g/ha; application during weed generation, submerged conditions
Outline: as §3

[8] = tested on: chickweed; assay: Test Example 5: herbicidal effect by foliage application, plastic box (Table 20, symbol P); format: in vivo, common chickweed (Stellaria media); conditions: foliage application, 320 g/ha, three weeks after application
Outline: as §2

[9] = tested on: Japanese bulrush; assay: Test Example 2: herbicidal activity, application during weed generation under submerged conditions (Table 17, symbol B); format: in vivo, Japanese bulrush (Schoenoplectus juncoides); conditions: AAH 320 g/ha; application during weed generation, submerged conditions
Outline: as §3

[10] = tested on: green foxtail; assay: Test Example 5: herbicidal effect by foliage application, plastic box (Table 20, symbol G); format: in vivo, green foxtail (Setaria viridis); conditions: foliage application, 320 g/ha, three weeks after application
Outline: as §2

[11] = tested on: rice flat sedge; assay: Test Example 3: herbicidal effect by foliage application, Wagner pot (Table 18, symbol E); format: in vivo, rice flat sedge (Cyperus iria); conditions: 320 g/ha
Outline: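 Plants were sown in alluvial soil held under 0.1–0.5 cm standing water and grown 14 days in a greenhouse at 25–30 °C. An emulsifiable formulation, water-diluted to the set dose, was then sprayed onto the foliage, and effects were scored three weeks later using previously defined criteria.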

[12] = tested on: velvetleaf; assay: Test Example 5: herbicidal effect by foliage application, plastic box (Table 20, symbol M); format: in vivo, velvetleaf (Abutilon theophrasti); conditions: foliage application, 320 g/ha, three weeks after application
Outline: as §2

[13] = tested on: barnyard grass; assay: Test Example 4: herbicidal effect by soil treatment (Table 19, symbol H); format: in vivo, barnyard grass (Echinochloa crus-galli); conditions: amount of applied herbicide 320 g/ha
Outline: as §1

[14] = tested on: chickweed; assay: Test Example 4: herbicidal effect by soil treatment (Table 19, symbol P); format: in vivo, common chickweed (Stellaria media); conditions: amount of applied herbicide 320 g/ha
Outline: as §1

[15] = tested on: velvetleaf; assay: Test Example 4: herbicidal effect by soil treatment (Table 19, symbol M); format: in vivo, velvetleaf (Abutilon theophrasti); conditions: amount of applied herbicide 320 g/ha
Outline: as §1

[16] = tested on: green foxtail; assay: Test Example 4: herbicidal effect by soil treatment (Table 19, symbol G); format: in vivo, green foxtail (Setaria viridis); conditions: amount of applied herbicide 320 g/ha
Outline: as §1

[17] = tested on: windgrass; assay: Test Example 4: herbicidal effect by soil treatment (Table 19, symbol L); format: in vivo, windgrass (Apera spica-venti); conditions: amount of applied herbicide 320 g/ha
Outline: as §1

Structure (SMILES)	Herbicidal effect, A: late watergrass [1]	R: persian speedwell, herbicidal effect grade [2]	O: lambsquarters, herbicidal effect grade [3]	K: Italian ryegrass, herbicidal effect grade [4]	herbicidal effect rating, C: oval-leafed pondweed [5]	N: redroot pigweed, herbicidal effect grade [6]	herbicidal effect rating, A: late watergrass [7]	P: chickweed, herbicidal effect grade [8]	herbicidal effect rating, B: Japanese bulrush [9]	G: green foxtail, herbicidal effect grade [10]	herbicidal effect on rice flat sedge (E) [11]	M: velvetleaf, herbicidal effect grade [12]	H: barnyard grass, herbicidal effect grade [13]	P: chickweed, herbicidal effect grade [14]	M: velvetleaf, herbicidal effect grade [15]	G: green foxtail, herbicidal effect grade [16]	other results
COc1cc(F)ccc1-c1sc2cc(Cl)ccc2c1-c1c(O)c(C)nn(C)c1=O [3-043]	0 (Herbicidal rate of 5% or less (almost no effect))	3 (Herbicidal rate of 40% or more and less than 70%)	5 (Herbicidal rate of 90% or more (almost completely withered))	2 (Herbicidal rate of 20% or more and less than 40%)	0 (Herbicidal rate of 5% or less (almost no effect))	2 (Herbicidal rate of 20% or more and less than 40%)	3 (Herbicidal rate of 40% or more and less than 70%)	5 (Herbicidal rate of 90% or more (almost completely withered))	0 (Herbicidal rate of 5% or less (almost no effect))	5 (Herbicidal rate of 90% or more (almost completely withered))	5 (Herbicidal rate of 90% or more (almost completely withered))	5 (Herbicidal rate of 90% or more (almost completely withered))	4 (Herbicidal rate of 70% or more and less than 90%)	4 (Herbicidal rate of 70% or more and less than 90%)	3 (Herbicidal rate of 40% or more and less than 70%)	4 (Herbicidal rate of 70% or more and less than 90%)	–
CCOc1cc(F)ccc1-c1sc2cc(Cl)ccc2c1-c1c(O)c(C)nn(C)c1=O [3-045]	2 (Herbicidal rate of 20% or more and less than 40%)	3 (Herbicidal rate of 40% or more and less than 70%)	4 (Herbicidal rate of 70% or more and less than 90%)	0 (Herbicidal rate of 5% or less (almost no effect))	0 (Herbicidal rate of 5% or less (almost no effect))	4 (Herbicidal rate of 70% or more and less than 90%)	2 (Herbicidal rate of 20% or more and less than 40%)	5 (Herbicidal rate of 90% or more (almost completely withered))	2 (Herbicidal rate of 20% or more and less than 40%)	5 (Herbicidal rate of 90% or more (almost completely withered))	5 (Herbicidal rate of 90% or more (almost completely withered))	5 (Herbicidal rate of 90% or more (almost completely withered))	5 (Herbicidal rate of 90% or more (almost completely withered))	4 (Herbicidal rate of 70% or more and less than 90%)	2 (Herbicidal rate of 20% or more and less than 40%)	4 (Herbicidal rate of 70% or more and less than 90%)	–
CCCOc1ccc2c(-c3c(O)c(C)nn(C)c3=O)c(-c3ccccc3OC)sc2c1 [3-099]	5 (Herbicidal rate of 90% or more (almost completely withered))	4 (Herbicidal rate of 70% or more and less than 90%)	5 (Herbicidal rate of 90% or more (almost completely withered))	5 (Herbicidal rate of 90% or more (almost completely withered))	3 (Herbicidal rate of 40% or more and less than 70%)	5 (Herbicidal rate of 90% or more (almost completely withered))	3 (Herbicidal rate of 40% or more and less than 70%)	5 (Herbicidal rate of 90% or more (almost completely withered))	4 (Herbicidal rate of 70% or more and less than 90%)	5 (Herbicidal rate of 90% or more (almost completely withered))	5 (Herbicidal rate of 90% or more (almost completely withered))	5 (Herbicidal rate of 90% or more (almost completely withered))	4 (Herbicidal rate of 70% or more and less than 90%)	3 (Herbicidal rate of 40% or more and less than 70%)	3 (Herbicidal rate of 40% or more and less than 70%)	5 (Herbicidal rate of 90% or more (almost completely withered))	–
COc1ccccc1-c1sc2cc(OCC3CCCO3)ccc2c1-c1c(O)c(C)nn(C)c1=O (stereo not shown) [3-133]	3 (Herbicidal rate of 40% or more and less than 70%)	–	–	5 (Herbicidal rate of 90% or more (almost completely withered))	1 (Herbicidal rate of 5% or more and less than 20%)	5 (Herbicidal rate of 90% or more (almost completely withered))	2 (Herbicidal rate of 20% or more and less than 40%)	5 (Herbicidal rate of 90% or more (almost completely withered))	3 (Herbicidal rate of 40% or more and less than 70%)	5 (Herbicidal rate of 90% or more (almost completely withered))	5 (Herbicidal rate of 90% or more (almost completely withered))	3 (Herbicidal rate of 40% or more and less than 70%)	–	–	–	–	Herbicidal effect by soil treatment, O: lambsquarters [3]: 5 (Herbicidal rate of 90% or more (almost completely withered)); Herbicidal effect by soil treatment, L: windgrass [17]: 5 (Herbicidal rate of 90% or more (almost completely withered)); Herbicidal effect by soil treatment, H: barnyard grass [13]: 1 (Herbicidal rate of 5% or more and less than 20%); Herbicidal effect by soil treatment, P: chickweed [14]: 4 (Herbicidal rate of 70% or more and less than 90%); Herbicidal effect by soil treatment, M: velvetleaf [15]: 1 (Herbicidal rate of 5% or more and less than 20%); Herbicidal effect by soil treatment, G: green foxtail [16]: 5 (Herbicidal rate of 90% or more (almost completely withered))

From patent US20230085307A1, “PYRIDAZINONE COMPOUND AND HERBICIDE” (NISSAN CHEMICAL CORPORATION, priority 2019, published 2023)
